In paper PMC6522510 (Nature Communications, 2019):
Like-named read-outs stand apart in the source and are kept apart here. One block for each molecule: values may come before it.

How the values were obtained:
Assay in all cases: Secondary dose-response HTS, Cell Titer Glo; call rule not given here
Format in all cases: cell-based, human
MV4-11 = conditions: MV4-11
ML2 = conditions: ML-2
CHRF288-11 = system: CHRF288-11
CMS = system: CMS
MOLM-13 = conditions: MOLM-13
M07e = system: M07e
CMK = conditions: CMK
U937 = system: U937
[1] = secondary high-throughput screen
[2] = secondary high-throughput screen, CHRF288-11
[3] = secondary high-throughput screen, CMS
[4] = secondary high-throughput screen, M07e
[5] = secondary high-throughput screen, read-out: average effective concentration, CMK
[6] = secondary high-throughput screen, U937, read-out: average effective concentration, U937
[7] = Homo sapiens, secondary high-throughput screen, read-out: average effective concentration, MV4-11
[8] = Homo sapiens, secondary high-throughput screen, read-out: average effective concentration, ML-2
[9] = Homo sapiens, HTS, secondary high-throughput screen, CHRF288-11, read-out: average effective concentration, CHRF288-11
[10] = Homo sapiens, secondary high-throughput screen, read-out: average effective concentration, MOLM-13
[11] = Homo sapiens, M-07e, secondary high-throughput screen, M07e, read-out: average effective concentration, M07e
[12] = Homo sapiens, U-937, secondary high-throughput screen, U937, read-out: average effective concentration, U937
[13] = secondary high-throughput screen, U937
[14] = Homo sapiens, secondary HTS, 72 h, average of triplicate, read-out: EC50 MV4-11
[15] = Homo sapiens, secondary HTS, 72 h, average of triplicate, read-out: EC50 ML2
[16] = Homo sapiens, secondary HTS, 72 h, average of triplicate, read-out: EC50 CHRF288-11
[17] = Homo sapiens, secondary HTS, 72 h, average of triplicate, read-out: EC50 CMS
[18] = Homo sapiens, secondary HTS, 72 h, average of triplicate, read-out: EC50 MOLM-13
[19] = Homo sapiens, M-07e, secondary HTS, 72 h, average of triplicate, read-out: EC50 M07e
[20] = Homo sapiens, secondary HTS, 72 h, average of triplicate, read-out: EC50 CMK
[21] = Homo sapiens, U-937, secondary HTS, 72 h, average of triplicate, read-out: EC50 U937
[22] = secondary high-throughput screen, read-out: average effective concentration, MOLM-13
[23] = secondary high-throughput screen, read-out: average effective concentration, ML-2
[24] = secondary high-throughput screen, CHRF288-11, read-out: average effective concentration, CHRF288-11
[25] = secondary high-throughput screen, CMS, read-out: average effective concentration, CMS
[26] = secondary high-throughput screen, M07e, read-out: average effective concentration, M07e
[27] = Homo sapiens, HTS, secondary high-throughput screen, CMS, read-out: average effective concentration, CMS
[28] = Homo sapiens, secondary high-throughput screen, read-out: average effective concentration, CMK

EC50 (U937; [6]): 6200 nM
Structure (SMILES): CNC(=O)c1c(F)cccc1Nc1nc(Nc2cc3c(cc2OC)CCN3C(=O)CN(C)C)nc2[nH]ccc12 [GSK1838705A]
average effective concentration, MV4-11 (MV4-11; [1]): Inactive
average effective concentration, ML-2 (ML2; [1]): Inactive
average effective concentration, CHRF288-11 (CHRF288-11; [2]): Inactive
average effective concentration, CMS (CMS; [3]): Inactive
average effective concentration, MOLM-13 (MOLM-13; [1]): Inactive
average effective concentration, M07e (M07e; [4]): Inactive
EC50 (CMK; [5]): 5800 nM

EC50 (MV4-11; [7]): 1 nM
EC50 (MOLM-13; [10]): 940 nM
EC50 (U937; [12]): 1 nM
Structure (SMILES): COc1ncc(-c2ccc3nccc(-c4ccnnc4)c3c2)cc1NS(=O)(=O)c1ccc(F)cc1F [GSK-2126458]
EC50 (ML2; [8]): 1 nM
EC50 (CHRF288-11; [9]): 1300 nM
EC50 (CMS; Homo sapiens, HTS, read-out: average effective concentration, CMS): 40 nM
EC50 (M07e; [11]): 5600 nM
EC50 (CMK; Homo sapiens, read-out: average effective concentration, CMK): 1 nM

Structure (SMILES): O=C1Nc2ccc(I)cc2/C1=C/c1cc(Br)c(O)c(Br)c1 [GW 5074]
average effective concentration, MV4-11 (MV4-11; [1]): Inactive
average effective concentration, ML-2 (ML2; [1]): Inactive
average effective concentration, CHRF288-11 (CHRF288-11; [2]): Inactive
average effective concentration, CMS (CMS; [3]): Inactive
average effective concentration, MOLM-13 (MOLM-13; [1]): Inactive
average effective concentration, M07e (M07e; [4]): Inactive
average effective concentration, CMK (CMK; [1]): Inactive
average effective concentration, U937 (U937; [13]): Inactive

Structure (SMILES): CC(C)=CCC[C@]1(C)C=Cc2c(O)c3c(c(CC=C(C)C)c2O1)O[C@]12C(=C[C@@H]4C[C@H]1C(C)(C)O[C@@]2(C/C=C(/C)C(=O)O)C4=O)C3=O [Gambogic acid, reference compound]
EC50 (MV4-11; [14]): 170 nM
EC50 (ML2; [15]): 150 nM
EC50 (CHRF288-11; [16]): 220 nM
EC50 (CMS; [17]): 260 nM
EC50 (MOLM-13; [18]): 190 nM
EC50 (M07e; [19]): 240 nM
EC50 (CMK; [20]): 360 nM
EC50 (U937; [21]): 190 nM

EC50 (MOLM-13; [22]): 13 nM
Structure (SMILES): O=[N+]([O-])c1c(Nc2cc(F)cc(Cl)c2)ccc2nonc12 [HIF-C2]
average effective concentration, MV4-11 (MV4-11; [1]): Inactive
average effective concentration, ML-2 (ML2; [1]): Inactive
average effective concentration, CHRF288-11 (CHRF288-11; [2]): Inactive
average effective concentration, CMS (CMS; [3]): Inactive
average effective concentration, M07e (M07e; [4]): Inactive
average effective concentration, CMK (CMK; [1]): Inactive
average effective concentration, U937 (U937; [13]): Inactive

EC50 (U937; [6]): 10 nM
Structure (SMILES): O=C1c2ccccc2-c2nc3nnnn3nc21.O=C1c2ccccc2-c2nn3nnnc3nc21 [KP-372-1]
average effective concentration, MV4-11 (MV4-11; [1]): Inactive
EC50 (ML2; [23]): 6 nM
EC50 (CHRF288-11; [24]): 38 nM
EC50 (CMS; [25]): 31 nM
average effective concentration, MOLM-13 (MOLM-13; [1]): Inactive
EC50 (M07e; [26]): 53 nM
EC50 (CMK; [5]): 24 nM

Structure (SMILES): C[C@@H]1CN(CC(=O)Nc2ccc3c(c2)Cc2cccc(-c4cc(=O)cc(N5CCOCC5)o4)c2S3)C[C@H](C)O1 [KU60019]
average effective concentration, MV4-11 (MV4-11; [1]): Inactive
average effective concentration, ML-2 (ML2; [1]): Inactive
average effective concentration, CHRF288-11 (CHRF288-11; [2]): Inactive
EC50 (CMS; [27]): > 10000 nM
average effective concentration, MOLM-13 (MOLM-13; [1]): Inactive
average effective concentration, M07e (M07e; [4]): Inactive
average effective concentration, CMK (CMK; [1]): Inactive
average effective concentration, U937 (U937; [13]): Inactive

Structure (SMILES): C[N+](C)(C)[C@@H](Cc1c[nH]c(=S)[nH]1)C(=O)[O-] [L-(+)-ERGOTHIONEINE]
average effective concentration, MV4-11 (MV4-11; [1]): Inactive
average effective concentration, ML-2 (ML2; [1]): Inactive
average effective concentration, CHRF288-11 (CHRF288-11; [2]): Inactive
average effective concentration, CMS (CMS; [3]): Inactive
average effective concentration, MOLM-13 (MOLM-13; [1]): Inactive
EC50 (M07e; [26]): 3200 nM
average effective concentration, CMK (CMK; [1]): Inactive
average effective concentration, U937 (U937; [13]): Inactive

EC50 (U937; [6]): 3400 nM
Structure (SMILES): Cn1c(/C=C/C(=O)NO)ccc1/C=C/C(=O)c1cccc(F)c1 [MC1568]
average effective concentration, MV4-11 (MV4-11; [1]): Inactive
EC50 (ML2; [23]): 4300 nM
EC50 (CHRF288-11; [24]): 4900 nM
average effective concentration, CMS (CMS; [3]): Inactive
average effective concentration, MOLM-13 (MOLM-13; [1]): Inactive
EC50 (M07e; [26]): 460 nM
average effective concentration, CMK (CMK; [1]): Inactive

Structure (SMILES): CCOC(=O)c1cc2ccccc2nc1C [MC-1626]
average effective concentration, MV4-11 (MV4-11; [1]): Inactive
average effective concentration, ML-2 (ML2; [1]): Inactive
average effective concentration, CHRF288-11 (CHRF288-11; [2]): Inactive
average effective concentration, CMS (CMS; [3]): Inactive
average effective concentration, MOLM-13 (MOLM-13; [1]): Inactive
average effective concentration, M07e (M07e; [4]): Inactive
average effective concentration, CMK (CMK; [1]): Inactive
average effective concentration, U937 (U937; [13]): Inactive

Structure (SMILES): CC12CC3CC(C)(C1)CC(N)(C3)C2 [MEMANTINE]
average effective concentration, MV4-11 (MV4-11; [1]): Inactive
average effective concentration, ML-2 (ML2; [1]): Inactive
average effective concentration, CHRF288-11 (CHRF288-11; [2]): Inactive
average effective concentration, CMS (CMS; [3]): Inactive
average effective concentration, MOLM-13 (MOLM-13; [1]): Inactive
EC50 (M07e; [11]): > 10000 nM
average effective concentration, CMK (CMK; [1]): Inactive
average effective concentration, U937 (U937; [13]): Inactive

EC50 (MV4-11; [7]): 1300 nM
EC50 (MOLM-13; [10]): 2000 nM
EC50 (U937; [12]): 10000 nM
Structure (SMILES): CN(C)c1ccc2nc3ccc(=[N+](C)C)cc-3sc2c1 [METHYLENE BLUE]
EC50 (ML2; [8]): 5900 nM
EC50 (CHRF288-11; [9]): 6200 nM
EC50 (CMS; [27]): > 10000 nM
EC50 (M07e; [11]): > 10000 nM
EC50 (CMK; [28]): 3400 nM

Structure (SMILES): CO[C@@]12[C@H](COC(N)=O)C3=C(C(=O)C(C)=C(N)C3=O)N1C[C@@H]1N[C@@H]12 [MITOMYCIN C]
EC50 (MV4-11; [7]): 4100 nM
EC50 (ML2; [8]): 2400 nM
EC50 (CHRF288-11; [9]): 750 nM
EC50 (CMS; [27]): 10000 nM
EC50 (MOLM-13; [10]): 2800 nM
EC50 (M07e; [11]): 9400 nM
EC50 (CMK; [28]): 770 nM
EC50 (U937; [12]): 4400 nM

Structure (SMILES): O=C1c2c(O)ccc(O)c2C(=O)c2c(NCCNCCO)ccc(NCCNCCO)c21 [Mitoxantrone, reference compound]
EC50 (MV4-11; [14]): 1 nM
EC50 (ML2; [15]): 240 nM
EC50 (CHRF288-11; [16]): 20 nM
EC50 (CMS; [17]): 80 nM
EC50 (MOLM-13; [18]): 10 nM
EC50 (M07e; [19]): 30 nM
EC50 (CMK; [20]): 40 nM
EC50 (U937; [21]): 30 nM

Structure (SMILES): Cc1ccc(S(=O)(=O)n2c(N)nc3ccccc32)cc1 [NODINITIB-1]
average effective concentration, MV4-11 (MV4-11; [1]): Inactive
average effective concentration, ML-2 (ML2; [1]): Inactive
average effective concentration, CHRF288-11 (CHRF288-11; [2]): Inactive
average effective concentration, CMS (CMS; [3]): Inactive
average effective concentration, MOLM-13 (MOLM-13; [1]): Inactive
average effective concentration, M07e (M07e; [4]): Inactive
average effective concentration, CMK (CMK; [1]): Inactive
average effective concentration, U937 (U937; [13]): Inactive

Structure (SMILES): O=c1cc(N2CCOCC2)oc2c1ccc1ccccc12 [NU 7026]
average effective concentration, MV4-11 (MV4-11; [1]): Inactive
average effective concentration, ML-2 (ML2; [1]): Inactive
average effective concentration, CHRF288-11 (CHRF288-11; [2]): Inactive
average effective concentration, CMS (CMS; [3]): Inactive
average effective concentration, MOLM-13 (MOLM-13; [1]): Inactive
average effective concentration, M07e (M07e; [4]): Inactive
average effective concentration, CMK (CMK; [1]): Inactive
average effective concentration, U937 (U937; [13]): Inactive

EC50 (MV4-11; secondary high-throughput screen, read-out: average effective concentration, MV4-11): 290 nM
EC50 (MOLM-13; [22]): 1300 nM
EC50 (U937; [6]): 490 nM
Structure (SMILES): CC(C)(CCc1ccccc1)C(=O)Nc1ccc(C(=O)NO)cc1 [OSU-HDAC-44]
EC50 (ML2; [23]): 1400 nM
EC50 (CHRF288-11; [24]): 1500 nM
EC50 (CMS; [25]): 480 nM
EC50 (M07e; [26]): 350 nM
average effective concentration, CMK (CMK; [1]): Inactive

EC50 (MV4-11; [14]): 10 nM
EC50 (MOLM-13; [18]): 10 nM
EC50 (U937; [21]): 10 nM
EC50 (U937; [12]): 11 nM
Structure (SMILES): COC[C@H](NC(=O)c1cnc(C)s1)C(=O)N[C@@H](COC)C(=O)N[C@@H](Cc1ccccc1)C(=O)[C@@]1(C)CO1 [Oprozomib, reference compound]
EC50 (ML2; [15]): 10 nM
EC50 (ML2; [8]): 5 nM
EC50 (CHRF288-11; [9]): 25 nM
EC50 (CHRF288-11; [16]): 30 nM
EC50 (CMS; [17]): 1 nM
EC50 (M07e; [19]): 10 nM
EC50 (CMK; [20]): 10 nM
EC50 (CMK; [28]): 7.6 nM
